Measurements taken from patent US10308620B2, “Muscarinic M1 receptor positive allosteric modulators” (SUVEN LIFE SCIENCES LIMITED, priority 2015, dated 2019).

What follows are molecules tested against recombinant human Muscarinic M1 receptor (Homo sapiens (Human), UniProt P11229) (assay: Allosteric potency EC50, CHO cells with pCRE-Luc reporter, in presence of EC20 of acetylcholine). Settings: 4 hours.
Type: cell-based
Protocol: Determination of Allosteric Potency EC50 Values for Muscarinic M1 Receptor:
A stable CHO cell line expressing recombinant human Muscarinic M1 receptor and pCRE-Luc reporter system was used for cell-based assay. The assay offers a non-radioactive based approach to determine binding of a compound to GPCRs. In this specific assay, the level of intracellular cyclic AMP which is modulated by activation or inhibition of the receptor is measured. The recombinant cells harbor luciferase reporter gene under the control of cAMP response element.
The above cells were grown in 96 well clear bottom white plates in Hams F12 medium containing 10% fetal bovine serum (FBS). Prior to the addition of compounds or standard agonist, cells were serum starved overnight. Increasing concentrations of test compounds were added along with EC20 of acetylcholine in OptiMEM medium to the cells. The incubation was continued at 37° C. in CO2 incubator for 4 hours. Medium was removed and cells were washed with phosphate buffered saline. The cells were lysed and luciferase activity was measured in a Luminometer. Luminescence units were plotted against the compound concentrations using Graphpad software. EC50 values of the compounds were defined as the concentration required in stimulating the luciferase activity by 50% in presence of EC20 of acetylcholine.

Sequence of recombinant human Muscarinic M1 receptor (P11229 whole entry): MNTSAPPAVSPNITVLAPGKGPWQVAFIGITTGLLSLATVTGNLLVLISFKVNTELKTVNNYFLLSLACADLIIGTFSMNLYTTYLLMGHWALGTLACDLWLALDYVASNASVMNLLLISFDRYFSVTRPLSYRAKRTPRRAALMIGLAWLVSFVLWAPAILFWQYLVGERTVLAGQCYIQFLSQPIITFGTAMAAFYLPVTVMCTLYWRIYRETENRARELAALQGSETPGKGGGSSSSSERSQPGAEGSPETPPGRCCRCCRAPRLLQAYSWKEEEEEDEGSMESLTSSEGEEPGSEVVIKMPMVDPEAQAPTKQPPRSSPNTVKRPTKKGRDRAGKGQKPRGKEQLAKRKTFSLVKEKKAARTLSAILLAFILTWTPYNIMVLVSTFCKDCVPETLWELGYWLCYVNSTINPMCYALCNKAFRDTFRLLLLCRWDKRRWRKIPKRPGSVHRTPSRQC

Compound	EC50 [µM]
O=C(N[C@H]1CCCC[C@@H]1O)C1=CN(Cc2ccccc2F)c2ncccc2O1 [Example 3, N-(cis-1S,2S-2-Hydroxycyclohexyl)-4-{2-fluorobenzyl}-4H-pyrido[3,2-b][1,4]oxazine-2-carboxamide]	1.15
CC(C)(O)CNC(=O)C1=CN(Cc2cccc(F)c2)c2ccccc2O1 [Example 8, N-(2-Hydroxy-2-methylpropyl)-4-(3-fluorobenzyl)-4H-benzo[1,4]oxazine-2-carboxamide]	2.89
COc1cccc(CN2C=C(C(=O)NCC(C)(C)O)Oc3ccccc32)c1 [Example 10, N-(2-Hydroxy-2-methylpropyl)-4-(3-methoxybenzyl)-4H-benzo[1,4]oxazine-2-carboxamide]	1.55
COc1cc(CN2C=C(C(=O)NCC(C)(C)O)Oc3ccccc32)ccn1 [Example 12, N-(2-Hydroxy-2-methylpropyl)-4-(2-methoxypyridin-4-ylmethyl)-4H-benzo[1,4]oxazine-2-carboxamide]	1.51
CC(C)(O)CNC(=O)C1=CN(Cc2ccc(F)cc2)c2ccccc2O1 [Example 14, N-(2-Hydroxy-2-methylpropyl)-4-(4-fluorobenzyl)-4H-benzo[1,4]oxazine-2-carboxamide]	1.36
COc1ccc(CN2C=C(C(=O)N[C@H]3CCCC[C@@H]3O)Oc3ccccc32)cn1 [Example 15, N-(cis-1S,2S-2-Hydroxycyclohexyl)-4-(2-methoxypyridin-5-ylmethyl)-4H-benzo[1,4]oxazine-2-carboxamide]	0.591
COc1ccc(CN2C=C(C(=O)NCC(C)(C)O)Oc3ccccc32)cn1 [Example 16, N-(2-Hydroxy-2-methylpropyl)-4-(2-methoxypyridin-5-ylmethyl)-4H-benzo[1,4]oxazine-2-carboxamide]	1.35
O=C(N[C@H]1CCCC[C@@H]1O)C1=CN(Cc2cccnc2)c2ccccc2O1 [Example 22, N-(cis-1S,2S-2-Hydroxycyclohexyl)-4-(pyridin-3-ylmethyl)-4H-benzo[1,4]oxazine-2-carboxamide]	0.353
O=C(N[C@H]1CCCC[C@@H]1O)C1=CN(Cc2ccnc(Cl)c2)c2ccccc2O1 [Example 24, N-(cis-1S,2S-2-Hydroxycyclohexyl)-4-(2-chloropyridin-4-ylmethyl)-4H-benzo[1,4]oxazine-2-carboxamide]	0.514
O=C(N[C@H]1CCCC[C@@H]1O)C1=CN(Cc2ccccn2)c2ccccc2O1 [Example 25, N-(cis-1S,2S-2-Hydroxycyclohexyl)-4-(pyridin-2-ylmethyl)-4H-benzo[1,4]oxazine-2-carboxamide]	0.911
O=C(N[C@H]1CCCC[C@@H]1O)C1=CN(Cc2ccc(Cl)c(Cl)c2)c2ccccc2O1 [Example 26, N-(cis-1S, 2S-2-Hydroxycyclohexyl)-4-(3,4-dichlorobenzyl)-4H-benzo[1,4]oxazine-2-carboxamide]	0.159
O=C(N[C@H]1CCCC[C@@H]1O)C1=CN(Cc2ccc(Cl)cc2Cl)c2ccccc2O1 [Example 28, N-(cis-1S, 2S-2-Hydroxycyclohexyl)-4-(2,4-dichlorobenzyl)-4H-benzo[1,4]oxazine-2-carboxamide]	0.25
O=C(N[C@H]1CCCC[C@@H]1O)C1=CN(Cc2cccc(F)c2F)c2cccc(F)c2O1 [Example 29, N-(cis-1S,2S-2-Hydroxycyclohexyl)-4-(2,3-difluorobenzyl)-8-fluoro-4H-benzo[1,4]oxazine-2-carboxamide]	0.14
O=C(N[C@H]1CCCC[C@@H]1O)C1=CN(Cc2ccccc2)c2ncccc2O1 [Example 30, N-(cis-1S, 2S-2-Hydroxycyclohexyl)-4-benzyl-4H-pyrido[3,2-b][1,4]oxazine-2-carboxamide]	0.955
O=C(N[C@H]1CCCC[C@@H]1O)C1=CN(Cc2ccc(F)cc2)c2ncccc2O1 [Example 35, N-(cis-1S,2S-2-Hydroxycyclohexyl)-4-(4-fluorobenzyl)-4H-pyrido[3,2-b][1,4]oxazine-2-carboxamide]	1.58
O=C(N[C@H]1CCCC[C@@H]1O)C1=CN(Cc2ccccc2C(F)(F)F)c2ccccc2O1 [Example 37, N-(cis-1S, 2S-2-Hydroxycyclohexyl)-4-(2-trifluoromethylbenzyl)-4H-benzo[1,4]oxazine-2-carboxamide]	0.534
O=C(N[C@@H]1CCC[C@H]1O)C1=CN(Cc2ccccc2F)c2ccccc2O1 [Example 40, N-(trans-1R,2R-2-Hydroxycyclopentyl)-4-(2-fluorobenzyl)-4H-benzo[1,4]oxazine-2-carboxamide]	1.53
O=C(N[C@H]1CCCC[C@@H]1O)C1=CN(Cc2ccccc2Cl)c2ccccc2O1 [Example 41, N-(cis-1S, 2S-2-Hydroxycyclohexyl)-4-(2-chlorobenzyl)-4H-benzo[1,4]oxazine-2-carboxamide]	0.168
O=C(Nc1ccccc1CO)C1=CN(Cc2cccc(F)c2F)c2cccc(F)c2O1 [Example 44, N-(2-Hydroxymethylphenyl)-4-(2,3-difluorobenzyl)-8-fluoro-4H-benzo[1,4]oxazine-2-carboxamide]	1.28
O=C(Nc1ccccc1CO)C1=CN(Cc2cccc(F)c2F)c2ccccc2O1 [Example 45, N-(2-Hydroxymethylphenyl)-4-(2,3-difluorobenzyl)-4H-benzo[1,4]oxazine-2-carboxamide]	1.58
CC(C)C(CO)NC(=O)C1=CN(Cc2ccccc2F)c2cccc(F)c2O1 (stereo not drawn) [Example 47, N-(1-Hydroxymethyl-2-methylpropyl)-4-(2-fluorobenzyl)-8-fluoro-4H-benzo[1,4]oxazine-2-carboxamide]	1.32
O=C(N[C@H]1CCCC[C@@H]1O)C1=CN(Cc2ccccc2)c2cccc(F)c2O1 [Example 48, N-(cis-1S,2S-2-Hydroxycyclohexyl)-4-benzyl-8-fluoro-4H-benzo[1,4]oxazine-2-carboxamide]	0.143
O=C(N[C@H]1CCCC[C@@H]1O)C1=CN(Cc2ccnc(Cl)c2)c2cccc(F)c2O1 [Example 54, N-(cis-1S,2S-2-Hydroxycyclohexyl)-4-(2-chloropyridin-4-ylmethyl)-8-fluoro-4H-benzo[1,4]oxazine-2-carboxamide]	0.088

The remaining molecules from weak to strong by EC50, led by results:

EC50 [µM]	Compound
1.62	O=C(Nc1ccccc1CO)C1=CN(Cc2ccccc2F)c2ccccc2O1 [Example 43, N-(2-Hydroxymethylphenyl)-4-(2-fluorobenzyl)-4H-benzo[1,4]oxazine-2-carboxamide]
1.55	O=C(N[C@@H]1CCC[C@H]1O)C1=CN(Cc2cccc(F)c2F)c2ccccc2O1 [Example 39, N-(trans-1R,2R-2-Hydroxycyclopentyl)-4-(2,3-difluorobenzyl)-4H-benzo[1,4]oxazine-2-carboxamide]
1.54	O=C(N[C@H]1CCCC[C@@H]1O)C1=CN(Cc2cccc(F)c2)c2cccnc2O1 [Example 36, N-(cis-1S,2S-2-Hydroxycyclohexyl)-1-(3-fluorobenzyl)-1H-pyrido[2,3-b][1,4]oxazine-3-carboxamide]
1.52	O=C(N[C@H]1CCCC[C@@H]1O)C1=CN(Cc2ccncc2F)c2ccccc2O1 [Example 34, N-(cis-1S,2S-2-Hydroxycyclohexyl)-4-(3-fluoropyridin-4-ylmethyl)-4H-benzo[1,4]oxazine-2-carboxamide]
1.51	COc1ccc(CN2C=C(C(=O)NCC(C)(C)O)Oc3ccccc32)cc1 [Example 6, N-(2-Hydroxy-2-methylpropyl)-4-(4-methoxybenzyl)-4H-benzo[1,4]oxazine-2-carboxamide]
1.37	Cc1ncccc1CN1C=C(C(=O)N[C@H]2CCCC[C@@H]2O)Oc2ccccc21 [Example 27, N-(cis-1S,2S-2-Hydroxycyclohexyl)-4-(2-methylpyridin-3-ylmethyl)-4H-benzo[1,4]oxazine-2-carboxamide]
1.35	O=C(N[C@H]1CCCC[C@@H]1O)C1=CN(Cc2ccnc(-c3ccccc3)c2)c2ccccc2O1 [Example 52, N-(cis-1S,2S-2-Hydroxycyclohexyl)-4-(2-phenylpyridin-4-ylmethyl)-4H-benzo[1,4]oxazine-2-carboxamide]
1.08	O=C(Nc1ccccc1CO)C1=CN(Cc2ccccc2F)c2cccc(F)c2O1 [Example 46, N-(2-Hydroxymethylphenyl)-4-(2-fluorobenzyl)-8-fluoro-4H-benzo[1,4]oxazine-2-carboxamide]
0.907	O=C(N[C@H]1CCCC[C@@H]1O)C1=CN(Cc2ccc(F)cc2)c2ccccc2O1 [Example 13, N-(cis-1S,2S-2-Hydroxycyclohexyl)-4-(4-fluorobenzyl)-4H-benzo[1,4]oxazine-2-carboxamide]
0.686	O=C(N[C@@H]1CCC[C@H]1O)C1=CN(Cc2cccc(F)c2F)c2cccc(F)c2O1 [Example 42, N-(trans-1R,2R-2-Hydroxycyclopentyl)-4-(2,3-difluorobenzyl)-8-fluoro-4H-benzo[1,4]oxazine-2-carboxamide]
0.262	O=C(N[C@H]1CCCC[C@@H]1O)C1=CN(Cc2ccccc2Cl)c2cccc(F)c2O1 [Example 38, N-(cis-1S, 2S-2-Hydroxycyclohexyl)-4-(2-chlorobenzyl)-8-fluoro-4H-benzo[1,4]oxazine-2-carboxamide]
0.23	O=C(N[C@H]1CCCC[C@@H]1O)C1=CN(Cc2ccnc(-c3ccccc3)c2)c2cccc(F)c2O1 [Example 53, N-(cis-1S,2S-2-Hydroxycyclohexyl)-4-(2-phenylpyridin-4-ylmethyl)-8-fluoro-4H-benzo[1,4]oxazine-2-carboxamide]
0.134	O=C(N[C@H]1CCCC[C@@H]1O)C1=CN(Cc2ccccc2F)c2cccc(F)c2O1 [Example 2, N-(cis-1S,2S-2-Hydroxycyclohexyl)-4-(2-fluorobenzyl)-8-fluoro-4H-benzo[1,4]oxazine-2-carboxamide]
